Assay results from patent US20260108547A1, “LEVERAGING L-FUCOSE-MEDIATED SIGNALING TO INDUCE MONOCYTE-DERIVED DENDRITIC CELL POLARIZATION” (H. LEE MOFFITT CANCER CENTER AND RESEARCH INSTITUTE, INC., priority 2022, published 2026).

Columns and labels:
[1] = test system: BMMC; assay: Flow cytometric DC polarization of BMMC; type: cell-based
Description: We next investigated the effect of L-fucose on dendritic cell differentiation. To test whether L-fucose affected immature or mature myeloid cells preferentially, BMMC were treated with L-fucose at various stages of development, pre=before maturation cocktail, concurrent=during maturation cocktail or post=after maturation cocktail (FIG. 23A). […] We next sought to determine if L-fucose equally affected subpopulations of DCs. By flow cytometric analysis we were able to determine that moDC are affected most by the modulation of fucosylation in immature myeloid cell populations.

[2] = test system: human PBMC-derived CD4+T cells; assay: Phosphoproteomic and fucosylated proteomic analyses of CD3/CD28-activated CD4+T cells; type: cell-based; conditions: 250 μM L-fucose
Description: CD4^+T cells cultured and treated as indicated in the main text were harvested and lysed in standard RIPA buffer+protease and phosphatase inhibitors. Protein concentration was estimated by BCA assay (Bio-Rad) and 1 mg lysates were subjected to trypsin digestion. Briefly, lysates were reduced with 4.5 mM dithiothreitol (DTT) for 30 min at 60° C., alkylated with 10 mM iodoacetamide (IAA) at room temperature in the dark for 20 minutes, and digested overnight at 37° C. with 1:20 enzyme-to-protein ratio of trypsin (Worthington). The resulting peptide solution was de-salted using reversed-phase Sep-Pak C18 cartridge (Waters) and lyophilized for 48 hours.
The lyophilized peptides were enriched for global phosphopeptides (pSTY) using IMAC Fe-NTA magnetic beads (Cell Signaling Technology, #20432). Enrichment were carried out on a KingFisher™ Flex Purification System (Thermo Fisher, #24074441). […]
On-bead digestion was performed with trypsin and tryptic peptides were then analyzed using a nanoflow ultra-high-performance liquid chromatograph (RSLC, Dionex, Sunnyvale, CA) coupled to an electrospray orbitrap mass spectrometer (Q-Exactive Plus, Thermo, San Jose, CA) for tandem mass spectrometry peptide sequencing. […] MaxQuant software (version 1.6.2.10) was used to identify and quantify the proteins for the DDA runs. […]

[3] = test system: SW1 tumors; assay: itIC and splenic flow cytometric profiling, SW1 tumor-bearing C3H/HeN mice; type: in vivo, mouse; conditions: oral L-fuc; SW1 model
Description: Tumors of SW1 or SM1 melanoma cells from […] or C57BL/6 mice, respectively) were digested using 1× tumor digest buffer (0.5 mg/mL Collagenase I, 0.5 mg/mL Collagenase IV, 0.25 mg/mL Hyalyronidase V, 0.1 mg/mL DNAse I in HBSS (Millipore Sigma (St. Louis, MO)). Tumors were homogenized using the Miltenyi MACs dissociator. Red blood cells were lysed using ACK lysis buffer (Life Technologies, (Grand Island, NY)). Tumor homogenate cells were counted using a standard hemocytometer.
Total TILs were gated first to single cells (based on forward scatter height vs width, followed by side scatter height vs. width). Live cells were gated from the Zombie negative population from the population above. TILs were gated based on splenocyte size from a control spleen. Individual immune subpopulations were sub-gated from the total TIL population using the following staining criteria: CD3^+ for CD3^+ T cells; CD3^+/CD4^+/CD8^− for CD4^+T cells; CD3^+/CD4^−/CD8^+ for CD8^+ T cells, CD11c^+/CD11b^+ for DCs; either NK1.1 (for C57/BL6 mice) or DX5 (for C3H/HeJ) for NK cells; CD11b^+/GR1^+ for MDSC-like cells; and F4/80^+ for macrophages. Single-cell suspensions from tumor and spleen tissue were stained with Live/Dead Zombie NIR (Biolegend, (San Diego, CA)) at 1:1,000 in PBS for 20 min. Cell suspensions were spun down and stained with the following with antibodies at 0.5 μg/ml per antibody: APC anti-mouse CD3, Pacific Blue anti-mouse CD4, BV785 anti-mouse CD8, PerCP anti-mouse CD25, FITC anti-mouse F4/80, PeCy7 anti-mouse CD11c, PE anti-mouse NK1.1 or PE anti-mouse DX5, and PerCP-Cy5.5 anti-mouse CD11b. After staining, the cells were washed and fixed (2% formaldehyde), followed by another wash and flow cytometric analysis. The compensation controls were prepared using 0.5 μg/mL of each antibody with UltraComp eBeads, (ThermoFisher Scientific (Waltham, MA)). All samples were subject to flow cytometric profiling using a LSR Flow Cytometer (BD Biosciences (San Jose, CA)) and analysis as indicated using FlowJo software (BD Biosciences (San Jose, CA)).

C[C@H](O)[C@@H](O)[C@@H](O)[C@H](O)C=O [L-fucose]
polarization of myeloid cells (DC subpopulations) ([1]; flow cytometric analysis): polarizes myeloid cells towards a moDC phenotype | absolute DC numbers ([1]; flow cytometric profiling of BMMCs): without affecting absolute DC numbers | DC polarization of BMMC ([1]; treated pre, concurrent or post maturation cocktail): leads to DC polarization of BMMC at any stage of myeloid development | Protein Kinase A (PKA) and actin signaling in CD4+T cells [2]: significantly altering | CD4+ and CD8+ T cells, most increased subpopulation of total itICs [3]: doubled | increased total itICs [3]: 10-50 fold | splenic lymphocyte profiles [3]: without altering splenic lymphocyte profiles
